Data as given in PubChem BioAssay AID256 (DTP/NCI, 2004).
“And” between values parts separate entries of the source, which are not always exact repeats. Equal entries are not always repeated. Inconclusive results and toxic doses are left out. How the source made its calls: active means survival T/C of 150% or more; inactive means T/C below 125% in these data.

System: CD2F1 mice, L1210 leukemia ip, survival T/C
Experiment: NCI In Vivo Anticancer Drug Screen. Data for tumor model L1210 Leukemia (intraperitoneal) in CD2F1 (CDF1) mice
Settings: higher = longer survival
In short: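 Compound-dosed mice with transplantable tumor versus matched vehicle controls; endpoint ratio T/C reported.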

[1] = endpoint: mean survival time, dose: 50.0 mg/kg/injection, schedule: Q01DX009 (ip), vehicle: saline with Tween-80
[2] = endpoint: mean survival time, dose: 200.0 mg/kg/injection, schedule: Q01DX009 (ip), vehicle: saline with Tween-80
[3] = endpoint: mean survival time, dose: 50.0 mg/kg/injection, schedule: Q01DX009 (ip), vehicle: saline
[4] = endpoint: mean survival time, dose: 75.0 mg/kg/injection, schedule: Q01DX009 (ip), vehicle: saline
[5] = endpoint: mean survival time, dose: 100.0 mg/kg/injection, schedule: Q04DX003 (ip), vehicle: saline with Tween-80
[6] = endpoint: mean survival time, dose: 200.0 mg/kg/injection, schedule: Q04DX003 (ip), vehicle: saline with Tween-80
[7] = endpoint: mean survival time, dose: 400.0 mg/kg/injection, schedule: Q04DX003 (ip), vehicle: saline with Tween-80
[8] = endpoint: mean survival time, dose: 100.0 mg/kg/injection, schedule: Q01DX009 (ip), vehicle: saline with Tween-80
[9] = endpoint: mean survival time, dose: 400.0 mg/kg/injection, schedule: Q01DX009 (ip), vehicle: saline with Tween-80
[10] = endpoint: mean survival time, dose: 100.0 mg/kg/injection, schedule: Q04DX003 (ip), vehicle: saline
[11] = endpoint: mean survival time, dose: 200.0 mg/kg/injection, schedule: Q04DX003 (ip), vehicle: saline
[12] = endpoint: mean survival time, dose: 400.0 mg/kg/injection, schedule: Q04DX003 (ip), vehicle: saline
[13] = endpoint: mean survival time, dose: 100.0 mg/kg/injection, schedule: Q04DX002 (ip), vehicle: saline with Tween-80
[14] = endpoint: mean survival time, dose: 200.0 mg/kg/injection, schedule: Q04DX002 (ip), vehicle: saline with Tween-80
[15] = endpoint: mean survival time, dose: 400.0 mg/kg/injection, schedule: Q04DX002 (ip), vehicle: saline with Tween-80
[16] = endpoint: mean survival time, dose: 25.0 mg/kg/injection, schedule: Q01DX009 (ip), vehicle: saline with Tween-80

Measured: T/C

COCC1OC(OC(=O)c2ccccc2)C(OC(=O)c2ccccc2)C(OC(=O)c2ccccc2)C1OC (configuration not stated)
inactive: [1] 101 % of control | [2] 93 % of control

CC(C)NC(=O)c1ccc(N=NN(C)C)cc1
inactive: endpoint: mean survival time, dose: 12.5 mg/kg/injection, schedule: Q01DX009 (ip), vehicle: other 91 % of control and 105 % of control | endpoint: mean survival time, dose: 25.0 mg/kg/injection, schedule: Q01DX009 (ip), vehicle: DMSO 104 % of control | endpoint: mean survival time, dose: 25.0 mg/kg/injection, schedule: Q01DX009 (ip), vehicle: other 119 % of control and 100 % of control | endpoint: mean survival time, dose: 50.0 mg/kg/injection, schedule: Q01DX009 (ip), vehicle: DMSO 110 % of control | endpoint: mean survival time, dose: 100.0 mg/kg/injection, schedule: Q01DX009 (ip), vehicle: other 119 % of control

O=C(O)Cc1c(Cl)cccc1[N+](=O)[O-]
inactive: endpoint: mean survival time, dose: 100.0 mg/kg/injection, schedule: Q01DX001 (ip), vehicle: other 116 % of control | endpoint: mean survival time, dose: 200.0 mg/kg/injection, schedule: Q01DX001 (ip), vehicle: other 101 % of control | endpoint: mean survival time, dose: 400.0 mg/kg/injection, schedule: Q01DX001 (ip), vehicle: other 104 % of control

BrCC12CCC1(CBr)COC2 (configuration not stated)
inactive: endpoint: mean survival time, dose: 100.0 mg/kg/injection, schedule: Q04DX003 (ip), vehicle: other 102 % of control | endpoint: mean survival time, dose: 200.0 mg/kg/injection, schedule: Q04DX003 (ip), vehicle: other 107 % of control | endpoint: mean survival time, dose: 400.0 mg/kg/injection, schedule: Q04DX003 (ip), vehicle: other 96 % of control

C=C1C(=O)O[C@@H]2C[C@@H](C)[C@@H]3[C@@H](OC4OC(COC(C)=O)C(O)C(O)C4O)CC(=O)[C@@]3(C)C[C@H]12 (some centres not stated)
inactive: endpoint: mean survival time, dose: 35.0 mg/kg/injection, schedule: Q01DX009 (ip), vehicle: saline 108 % of control | [3] 95 % of control | [4] 102 % of control

CCCCCCCCCCCCCCCCOc1ccc(S(=O)(=O)NC(C)(C)C)cc1[N+](=O)[O-]
inactive: [5] 105 % of control | [6] 96 % of control | [7] 94 % of control

Brc1ccc2c(c1)Cc1cc(N=Cc3ccc4c(c3)OCO4)ccc1-2
inactive: endpoint: mean survival time, dose: 100.0 mg/kg/injection, schedule: Q01DX001 (ip), vehicle: carboxymethylcellulose (CMC) 97 % of control | endpoint: mean survival time, dose: 200.0 mg/kg/injection, schedule: Q01DX001 (ip), vehicle: carboxymethylcellulose (CMC) 94 % of control | endpoint: mean survival time, dose: 400.0 mg/kg/injection, schedule: Q01DX001 (ip), vehicle: carboxymethylcellulose (CMC) 100 % of control

O=c1ccn(Cc2cccc([N+](=O)[O-])c2)c(=O)[nH]1
inactive: [8] 106 % of control | [2] 104 % of control | [9] 102 % of control

COc1ccc(C(C)C(O)c2ccccc2)cc1 (configuration not stated)
inactive: [10] 103 % of control | [11] 108 % of control | [12] 102 % of control

O=C(O)C(CCc1ccccc1)N1CCOCC1 (configuration not stated)
inactive: [10] 98 % of control | [11] 98 % of control | [12] 101 % of control

CN(C)C(=O)OC1CCCC1[N+](C)(C)CCCCCCCC[N+](C)(C)C1CCCC1OC(=O)N(C)C (configuration not stated)
inactive: endpoint: mean survival time, dose: 0.19 mg/kg/injection, schedule: Q01DX009 (ip), vehicle: saline 104 % of control | endpoint: mean survival time, dose: 0.31 mg/kg/injection, schedule: Q04DX003 (ip), vehicle: saline 100 % of control | endpoint: mean survival time, dose: 0.39 mg/kg/injection, schedule: Q01DX009 (ip), vehicle: saline 104 % of control | endpoint: mean survival time, dose: 0.62 mg/kg/injection, schedule: Q04DX003 (ip), vehicle: saline 98 % of control | endpoint: mean survival time, dose: 0.78 mg/kg/injection, schedule: Q01DX009 (ip), vehicle: saline 98 % of control

O=C(O)CCCCCCCCCCCCCCCCCCCCC(=O)O
inactive: [5] 87 % of control | [6] 102 % of control | [7] 87 % of control

S=C1NC(/C=C/c2ccccc2)Nc2ccccc21 (configuration not stated)
inactive: [5] 91 % of control | [6] 87 % of control

Nc1nc(Cl)c2nc(Cl)n(C3OC(CO)C(O)C3O)c2n1 (configuration not stated)
inactive: endpoint: mean survival time, dose: 100.0 mg/kg/injection, schedule: Q01DX001 (ip), vehicle: saline 102 % of control | endpoint: mean survival time, dose: 200.0 mg/kg/injection, schedule: Q01DX001 (ip), vehicle: saline 102 % of control | endpoint: mean survival time, dose: 400.0 mg/kg/injection, schedule: Q01DX001 (ip), vehicle: saline 100 % of control

CC1(C)OCC(C2OC(C)(C)OC2C2COC(C)(C)O2)O1 (configuration not stated)
inactive: [13] 100 % of control | [14] 94 % of control | [15] 101 % of control

N#CCCOCC(COCCC#N)OCCC#N
inactive: [16] 97 % of control and 103 % of control | [1] 98 % of control and 103 % of control | [8] 97 % of control and 110 % of control | [2] 89 % of control and 103 % of control

CC1(OO)OOC(=O)C1(C)C (configuration not stated)
inactive: endpoint: mean survival time, dose: 6.25 mg/kg/injection, schedule: Q04DX002 (ip), vehicle: saline with Tween-80 90 % of control | endpoint: mean survival time, dose: 12.5 mg/kg/injection, schedule: Q04DX002 (ip), vehicle: saline with Tween-80 93 % of control | endpoint: mean survival time, dose: 25.0 mg/kg/injection, schedule: Q04DX002 (ip), vehicle: saline with Tween-80 96 % of control

CCOC(=O)/C=C1/C=C(C)CC(C)(C)C1 (tested in a mixture with another compound)
inactive: [13] 98 % of control | [14] 91 % of control | [15] 87 % of control

BrCCCCCCCCCCC1(c2ccccc2)OCCO1
inactive: endpoint: mean survival time, dose: 100.0 mg/kg/injection, schedule: Q04DX003 (ip), vehicle: Klucel (hydroxypropylcellulose) (HPC) 90 % of control | endpoint: mean survival time, dose: 200.0 mg/kg/injection, schedule: Q04DX003 (ip), vehicle: Klucel (hydroxypropylcellulose) (HPC) 94 % of control | endpoint: mean survival time, dose: 400.0 mg/kg/injection, schedule: Q04DX003 (ip), vehicle: Klucel (hydroxypropylcellulose) (HPC) 95 % of control

CN(C)c1ccc(/C=C/c2ccc3ccccc3n2)c(F)c1
inactive: endpoint: mean survival time, dose: 100.0 mg/kg/injection, schedule: Q01DX009 (ip), vehicle: Klucel (hydroxypropylcellulose) (HPC) 100 % of control | endpoint: mean survival time, dose: 200.0 mg/kg/injection, schedule: Q01DX009 (ip), vehicle: Klucel (hydroxypropylcellulose) (HPC) 98 % of control | endpoint: mean survival time, dose: 400.0 mg/kg/injection, schedule: Q01DX009 (ip), vehicle: Klucel (hydroxypropylcellulose) (HPC) 89 % of control

O=C(OC1OC(CO)C(O)C(O)C1O)c1ccccc1 (configuration not stated)
inactive: [3] 97 % of control | endpoint: mean survival time, dose: 100.0 mg/kg/injection, schedule: Q01DX009 (ip), vehicle: saline 101 % of control | endpoint: mean survival time, dose: 200.0 mg/kg/injection, schedule: Q01DX009 (ip), vehicle: saline 93 % of control

O=C1CN(CO)C(=O)N1CO
inactive: endpoint: median survival time, dose: 25.0 mg/kg/injection, schedule: Q01DX009 (ip), vehicle: Klucel (hydroxypropylcellulose) (HPC) 110 % of control | endpoint: median survival time, dose: 50.0 mg/kg/injection, schedule: Q01DX009 (ip), vehicle: Klucel (hydroxypropylcellulose) (HPC) 110 % of control | endpoint: median survival time, dose: 100.0 mg/kg/injection, schedule: Q01DX009 (ip), vehicle: Klucel (hydroxypropylcellulose) (HPC) 116 % of control | endpoint: median survival time, dose: 200.0 mg/kg/injection, schedule: Q01DX009 (ip), vehicle: Klucel (hydroxypropylcellulose) (HPC) 112 % of control | endpoint: median survival time, dose: 400.0 mg/kg/injection, schedule: Q01DX009 (ip), vehicle: Klucel (hydroxypropylcellulose) (HPC) 96 % of control

COc1ccc(NC(=O)Nc2cc(C(F)(F)F)ccc2Cl)cc1
inactive: [8] 90 % of control | [2] 98 % of control | [9] 86 % of control

NC(N)=N/N=C/c1cc(Cl)cc(Cl)c1O
inactive: endpoint: mean survival time, dose: 18.8 mg/kg/injection, schedule: Q01DX009 (ip), vehicle: saline 108 % of control | endpoint: mean survival time, dose: 18.8 mg/kg/injection, schedule: Q04DX003 (ip), vehicle: saline 106 % of control | endpoint: mean survival time, dose: 37.5 mg/kg/injection, schedule: Q01DX009 (ip), vehicle: saline 109 % of control | endpoint: mean survival time, dose: 37.5 mg/kg/injection, schedule: Q04DX003 (ip), vehicle: saline 112 % of control | [4] 94 % of control | endpoint: mean survival time, dose: 75.0 mg/kg/injection, schedule: Q04DX003 (ip), vehicle: saline 114 % of control

CC(CN=Cc1ccccc1[O-])N=Cc1ccccc1[O-].[O]=[V] (configuration not stated)
inactive: endpoint: mean survival time, dose: 5.0 mg/kg/injection, schedule: Q04DX003 (ip), vehicle: saline with Tween-80 90 % of control | endpoint: mean survival time, dose: 10.0 mg/kg/injection, schedule: Q04DX003 (ip), vehicle: saline with Tween-80 94 % of control | endpoint: mean survival time, dose: 20.0 mg/kg/injection, schedule: Q04DX003 (ip), vehicle: saline with Tween-80 90 % of control

CCCCCCCCN(C)C
inactive: [16] 91 % of control | [1] 87 % of control

C/C(=N/NC(N)=S)c1ccc(NC(=O)C(Cl)Cl)cc1
inactive: endpoint: mean survival time, dose: 75.0 mg/kg/injection, schedule: Q01DX001 (ip), vehicle: saline 100 % of control | endpoint: mean survival time, dose: 150.0 mg/kg/injection, schedule: Q01DX001 (ip), vehicle: saline 96 % of control
